For this assay, the target named is human PAD4 (hPAD4) (Homo sapiens (Human), UniProt Q9UM07). Kind of assay: RFMS Human PAD4 Functional Assay 1. Format: biochemical. The note with it: RFMS assay 1; 5 nM hPAD4, 250 μM BAEE substrate, 50 μM calcium, 37° C. The essentials:
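Recombinant hPAD4 (5 nM) was preincubated with compound (top 50 μM, 0.5% DMSO) for 30 min at 37 °C, then reacted with 250 μM BAEE for 90 min at 37 °C in pH 7.5 HEPES buffer with 50 μM calcium and 5 μM TPEN. Product was derivatized with phenyl glyoxal and quantified by RapidFire MS.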
Sequence of human PAD4 (hPAD4) (Q9UM07 whole entry): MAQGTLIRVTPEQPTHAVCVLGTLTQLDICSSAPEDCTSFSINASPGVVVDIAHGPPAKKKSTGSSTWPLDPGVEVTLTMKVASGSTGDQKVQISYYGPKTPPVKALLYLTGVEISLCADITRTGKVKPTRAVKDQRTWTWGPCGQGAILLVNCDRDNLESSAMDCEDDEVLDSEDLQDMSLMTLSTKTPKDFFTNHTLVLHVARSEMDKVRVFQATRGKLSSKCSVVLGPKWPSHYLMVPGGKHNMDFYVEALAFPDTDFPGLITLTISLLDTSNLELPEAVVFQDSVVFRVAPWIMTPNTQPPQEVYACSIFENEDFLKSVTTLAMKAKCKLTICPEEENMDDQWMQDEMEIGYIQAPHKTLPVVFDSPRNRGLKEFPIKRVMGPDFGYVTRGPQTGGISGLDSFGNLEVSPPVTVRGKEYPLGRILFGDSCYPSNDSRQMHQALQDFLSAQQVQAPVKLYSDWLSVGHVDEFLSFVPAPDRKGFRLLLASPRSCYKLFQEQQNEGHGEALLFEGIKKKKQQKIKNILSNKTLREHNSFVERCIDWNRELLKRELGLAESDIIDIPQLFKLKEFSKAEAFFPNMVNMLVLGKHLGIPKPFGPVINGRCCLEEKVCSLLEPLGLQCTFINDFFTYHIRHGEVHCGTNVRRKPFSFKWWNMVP
In the case of `COc1cc(C(=O)N2CCC[C@@H](N)C2)cn2nc(-c3cc4ccc(-c5cccc6[nH]ncc56)cc4n3CC3CC3)c(C)c12` [Example 238, (3R)-1-{2-[1-(Cyclopropylmethyl)-6-(1H-indazol-4-yl)-1H-indol-2-yl]-4-methoxy-3-methylpyrazolo[1,5-a]pyridine-6-carbonyl}piperidin-3-amine], the IC50 turned out to be 420 nM.

On to `Cc1c(-c2cc3ccc(N4CCC(S(C)(=O)=O)CC4)nc3n2CC2CC2)nn2cc(C(=O)N3CC4CCC3[C@@H]4N)ccc12` (stereo partly drawn) [Example 320, (7R)-2-{2-[1-(Cyclopropylmethyl)-6-(4-methanesulfonylpiperidin-1-yl)-1H-pyrrolo[2,3-b]pyridin-2-yl]-3-methylpyrazolo[1,5-a]pyridine-6-carbonyl}-2-azabicyclo[2.2.1]heptan-7-amine], for which the IC50 is 150 nM.

Take `Cc1c(-c2cc3cccc(OCCn4cncn4)c3n2CC2CC2)nn2cc(C(=O)N3C[C@H](N)C[C@@H](F)C3)ccc12` [Example 581, (2-(7-(2-(1H-1,2,4-Triazol-1-yl)ethoxy)-1-(cyclopropylmethyl)-1H-indol-2-yl)-3-methylpyrazolo[1,5-a]pyridin-6-yl)((3R, 5R)-3-amino-5-fluoropiperidin-1-yl)methanone]: the IC50 was 30 nM.

For `Cc1c(-c2cc3ccnc(OCC4CNC(=O)C4)c3n2CC2CC2)nn2cc(C(=O)N3CCC[C@@H](N)C3)ccc12` (single isomer, unassigned; isomer 2) [Example 619], the concentration for half-maximal inhibition (IC50) was 40 nM.

Take `Cc1c(-c2cc3ccc(-c4cccc(O)c4F)cc3n2CC2CC2)nn2cc(C(=O)N3C[C@H](N)C[C@@H](F)C3)ccc12` [Example 92, ((3R,5R)-3-Amino-5-fluoropiperidin-1-yl)(2-(1-(cyclopropylmethyl)-6-(2-fluoro-3-hydroxyphenyl)-1H-indol-2-yl)-3-methylpyrazolo[1,5-a]pyridin-6-yl)methanone]: the IC50 came out at 672 nM.

Take `COC(=O)N1CCC(c2cccc3cc(-c4nn5cc(C(=O)N6C[C@H](N)C[C@@H](F)C6)ccc5c4C)n(CC4CC4)c23)CC1` [Example 469, Methyl 4-(2-(6-((3R,5R)-3-amino-5-fluoropiperidine-1-carbonyl)-3-methylpyrazolo[1,5-a]pyridin-2-yl)-1-(cyclopropylmethyl)-1H-indol-7-yl)piperidine-1-carboxylate]: the concentration for half-maximal inhibition (IC50) came out at 180 nM.

As to `Cc1c(-c2cc3ccc(C(C)(O)C(F)(F)F)cc3n2CC2CC2)nn2cc(C(=O)N3CC4CCC3[C@@H]4N)ccc12` (stereo partly drawn) [Example 101, ((7R)-7-Amino-2-azabicyclo[2.2.1]heptan-2-yl)(2-(1-(cyclopropylmethyl)-6-(1,1,1-trifluoro-2-hydroxypropan-2-yl)-1H-indol-2-yl)-3-methylpyrazolo[1,5-a]pyridin-6-yl)methanone], the IC50 was 11 nM.

Take `COc1cc(C(=O)N2C[C@H](N)C[C@@H](F)C2)cn2nc(-c3cc4ccc(-c5cccc(O)c5F)cc4n3CC3CC3)c(C)c12` [Example 32, ((3R,5R)-3-Amino-5-fluoropiperidin-1-yl)(2-(1-(cyclopropylmethyl)-6-(2-fluoro-3-hydroxyphenyl)-1H-indol-2-yl)-4-methoxy-3-methylpyrazolo[1,5-a]pyridin-6-yl)methanone]: the IC50 was determined as 414 nM.

With `COc1cc(C(=O)N2CCC[C@@H](N)C2)cn2nc(-c3cc4ccnc(OCCn5cnnc5)c4n3CC3CC3)c(C)c12` [Example 599, (R)-(2-(7-(2-(4H-1,2,4-Triazol-4-yl)ethoxy)-1-(cyclopropylmethyl)-1H-pyrrolo[2,3-c]pyridin-2-yl)-4-methoxy-3-methylpyrazolo[1,5-a]pyridin-6-yl)(3-aminopiperidin-1-yl)methanone], the IC50 came out at 20 nM.

As to `Cc1c(-c2cc3cccc(C4CCN(C(=O)c5cccs5)CC4)c3n2CC2CC2)nn2cc(C(=O)N3CC4CCC3[C@@H]4N)ccc12` (stereo partly drawn) [Example 475, (4-(2-(6-((7R)-7-Amino-2-azabicyclo[2.2.1]heptane-2-carbonyl)-3-methylpyrazolo[1,5-a]pyridin-2-yl)-1-(cyclopropylmethyl)-1H-indol-7-yl)piperidin-1-yl)(thiophen-2-yl)methanone], the IC50 is 20 nM.

For the molecule `Cc1c(-c2cc3ccc(-c4ccc(C(N)=O)cc4)nc3n2CC2CC2)nn2cc(C(=O)N3CC4CCC3[C@@H]4N)cc(F)c12` (stereo partly drawn) [Example 263, 4-(2-{6-[(7R)-7-Amino-2-azabicyclo[2.2.1]heptane-2-carbonyl]-4-fluoro-3-methylpyrazolo[1,5-a]pyridin-2-yl}-1-(cyclopropylmethyl)-1H-pyrrolo[2,3-b]pyridin-6-yl)benzamide], the IC50 was 90 nM.

As to `Cc1c(-c2cc3cccc(C4CCN(C(=O)c5cccs5)CC4)c3n2CC2CC2)nn2cc(C(=O)N3C[C@H](N)C[C@@H](F)C3)ccc12` [Example 474, ((3R,5R)-3-Amino-5-fluoropiperidin-1-yl)(2-(1-(cyclopropylmethyl)-7-(1-(thiophene-2-carbonyl)piperidin-4-yl)-1H-indol-2-yl)-3-methylpyrazolo[1,5-a]pyridin-6-yl)methanone], the 50% inhibitory concentration (IC50) is 70 nM.

In the case of `CC(=O)N1CCC(c2cccc3cc(-c4nn5cc(C(=O)N6CCC[C@@H](N)C6)ccc5c4C)n(CC4CC4)c23)CC1` [Example 479, (R)-1-(4-(2-(6-(3-Aminopiperidine-1-carbonyl)-3-methylpyrazolo[1,5-a]pyridin-2-yl)-1-(cyclopropylmethyl)-1H-indol-7-yl)piperidin-1-yl)ethan-1-one], the IC50 was 390 nM.

For the molecule `Cc1c(-c2cc3cccc(C4CCN(C(=O)[C@H]5CC[C@H](O)CC5)CC4)c3n2CC2CC2)nn2cc(C(=O)N3CCC[C@@H](N)C3)cc(F)c12` [Example 415, ((R)-3-Aminopiperidin-1-yl)(2-(1-(cyclopropylmethyl)-7-(1-((1r,4r)-4-hydroxycyclohexane-1-carbonyl)piperidin-4-yl)-1H-indol-2-yl)-4-fluoro-3-methylpyrazolo[1,5-a]pyridin-6-yl)methanone], the IC50 was 460 nM.

Consider `COc1cc(C(=O)N2CCC[C@@H](N)C2)cn2nc(-c3cc4cccc(C5CCN(C(=O)C6CCCCO6)CC5)c4n3CC3CC3)c(C)c12` (single isomer, unassigned) [Example 387], for which the IC50 stood at 230 nM.

For the molecule `Cc1c(-c2cc3cccc(C4CCN(C(=O)C5CC(O)C5)CC4)c3n2CC2CC2)nn2cc(C(=O)N3CCC[C@@H](N)C3)cc(F)c12` (mixture of isomers) [Example 420, (R)-(3-Aminopiperidin-1-yl)(2-(1-(cyclopropylmethyl)-7-(1-(3-hydroxycyclobutane-1-carbonyl)piperidin-4-yl)-1H-indol-2-yl)-4-fluoro-3-methylpyrazolo[1,5-a]pyridin-6-yl)methanone], the half-inhibitory concentration (IC50) stood at 290 nM.

Regarding `COc1cc(C(=O)N2CC3CCC2[C@@H]3N)cn2nc(-c3cc4ccc(-c5ccc6c(c5)CNC6=O)cc4n3CC3CC3)c(C)c12` (stereo partly drawn) [Example 24, 5-(2-(6-((7R)-7-Amino-2-azabicyclo[2.2.1]heptane-2-carbonyl)-4-methoxy-3-methylpyrazolo[1,5-a]pyridin-2-yl)-1-(cyclopropylmethyl)-1H-indol-6-yl)isoindolin-1-one], the IC50 stood at 31 nM.

In the case of `COc1cc(C(=O)N2CC3CCC2[C@@H]3N)cn2nc(-c3cc4ccc(-c5ccc(OC(F)F)c(F)c5)nc4n3CC3CC3)c(C)c12` (stereo partly drawn) [Example 12, ((7R)-7-Amino-2-azabicyclo[2.2.1]heptan-2-yl)(2-(1-(cyclopropylmethyl)-6-(4-(difluoromethoxy)-3-fluorophenyl)-1H-pyrrolo[2,3-b]pyridin-2-yl)-4-methoxy-3-methylpyrazolo[1,5-a]pyridin-6-yl)methanone], the IC50 was 2320 nM.

As to `COc1cc(C(=O)N2CCC[C@@H](N)C2)cn2nc(-c3cc4ccnc(OCCn5ccnc5C)c4n3CC3CC3)c(C)c12` [Example 595, (R)-(3-Aminopiperidin-1-yl)(2-(1-(cyclopropylmethyl)-7-(2-(2-methyl-1H-imidazol-1-yl)ethoxy)-1H-pyrrolo[2,3-c]pyridin-2-yl)-4-methoxy-3-methylpyrazolo[1,5-a]pyridin-6-yl)methanone], the IC50 was 1280 nM.

For the molecule `Cc1c(-c2cc3ccc(-c4ccc(Cl)c5c(NS(C)(=O)=O)nn(C)c45)cc3n2CC2CC2)nn2cc(C(=O)N3CC4CCC3[C@@H]4N)cc(F)c12` (stereo partly drawn) [Example 58, N-(7-(2-(6-((7R)-7-Amino-2-azabicyclo[2.2.1]heptane-2-carbonyl)-4-fluoro-3-methylpyrazolo[1,5-a]pyridin-2-yl)-1-(cyclopropylmethyl)-1H-indol-6-yl)-4-chloro-1-methyl-1H-indazol-3-yl)methanesulfonamide], the IC50 amounted to 83 nM.

With `Cc1c(-c2cc3cccc(C4CCN(C(=O)[C@@H](C)O)CC4)c3n2CC2CC2)nn2cc(C(=O)N3C[C@H](N)C[C@@H](F)C3)ccc12` [Example 472, (R)-1-(4-(2-(6-((3R,5R)-3-amino-5-fluoropiperidine-1-carbonyl)-3-methylpyrazolo[1,5-a]pyridin-2-yl)-1-(cyclopropylmethyl)-1H-indol-7-yl)piperidin-1-yl)-2-hydroxypropan-1-one], the IC50 is 60 nM.

Regarding `Cc1c(-c2ccc3cc(-c4nn5cc(C(=O)N6C[C@H](N)C[C@@H](F)C6)ccc5c4C)n(CC4CC4)c3c2)cc(F)c2[nH]c(=O)ccc12` [Example 376, 6-(2-{6-[(3R,5R)-3-Amino-5-fluoropiperidine-1-carbonyl]-3-methylpyrazolo[1,5-a]pyridin-2-yl}-1-(cyclopropylmethyl)-1H-indol-6-yl)-8-fluoro-5-methyl-1,2-dihydroquinolin-2-one], the IC50 stood at 120 nM.

As for `COc1cc(C(=O)N2CCC[C@@H](N)C2)cn2nc(-c3cc4cccc(OCCn5cc(N)cn5)c4n3CC3CC3)c(C)c12` [Example 558, (R)-(2-(7-(2-(4-Amino-1H-pyrazol-1-yl)ethoxy)-1-(cyclopropylmethyl)-1H-indol-2-yl)-4-methoxy-3-methylpyrazolo[1,5-a]pyridin-6-yl)(3-aminopiperidin-1-yl)methanone], the IC50 turned out to be 100 nM.

Broadly, the IC50 is the concentration needed to halve the response being measured.

The values are drawn from patent US12473304B2, “Heterocyclic PAD4 inhibitors” (BRISTOL-MYERS SQUIBB COMPANY, priority 2020, dated 2025).
